One assay relates to T1, GH3-N2/C5.
T1 construct: gene GH3.2; one fusion chain: AtGH3.2 residues 1-442 then AtGH3.5 residues 450-608; codon-optimized, pET-28a, His-tagged, E. coli Rosetta2 (DE3), monomer
The assay can be described thus: coupled myokinase/pyruvate kinase/lactate dehydrogenase assay of AMP formation, A340. Format: biochemical, Arabidopsis thaliana. As to conditions: 1 mM ATP, 5 mM aspartate, 1 mM MgCl2, pH 8.0, 25 °C. The source says: coupled myokinase/pyruvate kinase/lactate dehydrogenase assay of AMP formation, A340 on GH3-N2/C5

The target of the next assay is T2, AtGH3.12/PBS3 (Arabidopsis thaliana, UniProt Q9LYU4).
T2 construct: gene GH3.12; once misprinted PBS2
T2 sequence (Q9LYU4 1-575): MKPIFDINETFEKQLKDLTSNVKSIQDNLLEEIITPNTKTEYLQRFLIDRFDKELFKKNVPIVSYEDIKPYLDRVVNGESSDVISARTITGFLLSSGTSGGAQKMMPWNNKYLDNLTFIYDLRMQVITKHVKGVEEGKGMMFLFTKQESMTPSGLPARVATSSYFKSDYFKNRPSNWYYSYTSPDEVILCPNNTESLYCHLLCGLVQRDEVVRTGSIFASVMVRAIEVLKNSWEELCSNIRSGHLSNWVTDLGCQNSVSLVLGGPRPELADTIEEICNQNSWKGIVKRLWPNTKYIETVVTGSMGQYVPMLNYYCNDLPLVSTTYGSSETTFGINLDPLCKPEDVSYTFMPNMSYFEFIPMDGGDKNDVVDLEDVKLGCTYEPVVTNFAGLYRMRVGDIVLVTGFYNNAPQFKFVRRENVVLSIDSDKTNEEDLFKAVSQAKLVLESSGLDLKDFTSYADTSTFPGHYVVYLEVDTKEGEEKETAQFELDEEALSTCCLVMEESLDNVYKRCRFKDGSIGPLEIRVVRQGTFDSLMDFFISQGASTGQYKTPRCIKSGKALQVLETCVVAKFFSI
The assay can be described thus: TLC with [α-32P]ATP, acyl-AMP and AMP formation. As to conditions: without or with glutamate, 1 mM MgCl2, pH 8.0, 25 °C. It is filed as biochemical.

A further assay addresses T3, AtGH3.11/JAR1 (Arabidopsis thaliana, UniProt Q9SKE2).
T3 sequence (Q9SKE2 1-575): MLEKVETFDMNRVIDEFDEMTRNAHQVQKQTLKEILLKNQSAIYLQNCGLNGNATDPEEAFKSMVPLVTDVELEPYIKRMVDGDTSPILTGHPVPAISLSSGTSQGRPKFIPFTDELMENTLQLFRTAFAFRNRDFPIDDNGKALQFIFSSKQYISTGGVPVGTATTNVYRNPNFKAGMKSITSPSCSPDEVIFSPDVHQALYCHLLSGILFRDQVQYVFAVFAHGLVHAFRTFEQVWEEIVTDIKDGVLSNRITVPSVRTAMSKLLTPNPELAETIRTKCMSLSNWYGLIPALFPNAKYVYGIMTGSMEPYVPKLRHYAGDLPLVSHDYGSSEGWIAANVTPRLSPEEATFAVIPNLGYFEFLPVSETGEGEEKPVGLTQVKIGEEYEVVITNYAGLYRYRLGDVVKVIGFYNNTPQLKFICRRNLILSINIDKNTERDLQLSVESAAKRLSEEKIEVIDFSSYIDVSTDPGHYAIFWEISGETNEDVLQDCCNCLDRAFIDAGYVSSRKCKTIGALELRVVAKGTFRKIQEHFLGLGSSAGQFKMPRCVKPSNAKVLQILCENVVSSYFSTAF
The assay can be described thus: single-turnover TLC with [α-32P]ATP, acyl-AMP formation. It is filed as biochemical. The following applies: first half-reaction with JA, no amino acid, 1 mM MgCl2, pH 8.0, 25 °C; labelled compound.

This note sets out measurements from publication PMC11253546, “Fidelity in plant hormone modifications catalyzed by Arabidopsis GH3 acyl acid amido synthetases” (The Journal of Biological Chemistry, 2024).

Consider `O=C(O)c1ccccc1` [BA], for which, in the assay with GH3-N2/C5, the Km was found to be 880 ± 68 µM.

With `C=C(O[C@@H]1C=C(C(=O)O)C=C[C@H]1O)C(=O)O` [chorismate], the “TLC with [α-32P]ATP, acyl-AMP and AMP formation” value on AtGH3.12/PBS3 is “reactions using BA, 4-HBA, and chorismate produced acyl-AMP and AMP”.

Regarding `O=C(O)Cc1ccccc1` [PAA], in the assay on GH3-N2/C5, the Km is 1500 ± 280 µM.

In the case of `O=C(O)Cc1c[nH]c2ccccc12` [IAA], the Michaelis constant (Km) in the assay with GH3-N2/C5 turned out to be 540 ± 17 µM.

For `Nc1ncnc2c1ncn2[C@@H]1O[C@H](COP(=O)(O)OP(=O)(O)OP(=O)(O)O)[C@@H](O)[C@H]1O` [ATP], on AtGH3.11/JAR1, the “single-turnover TLC with [α-32P]ATP, acyl-AMP formation” value is on record as “rates of turnover from ATP to acyl-AMP (k1)”.

Broadly, the Km is the substrate concentration at which the rate is half of its maximum.
